According to ChEMBL document CHEMBL5291721, “A preclinical secondary pharmacology resource illuminates target-adverse drug reaction associations of marketed drugs” (Nat Commun, 2023):

Legend:
[1] = molecular target: T1, Alpha-2A adrenergic receptor (Homo sapiens, UniProt P08913)
T1 sequence (P08913 whole entry): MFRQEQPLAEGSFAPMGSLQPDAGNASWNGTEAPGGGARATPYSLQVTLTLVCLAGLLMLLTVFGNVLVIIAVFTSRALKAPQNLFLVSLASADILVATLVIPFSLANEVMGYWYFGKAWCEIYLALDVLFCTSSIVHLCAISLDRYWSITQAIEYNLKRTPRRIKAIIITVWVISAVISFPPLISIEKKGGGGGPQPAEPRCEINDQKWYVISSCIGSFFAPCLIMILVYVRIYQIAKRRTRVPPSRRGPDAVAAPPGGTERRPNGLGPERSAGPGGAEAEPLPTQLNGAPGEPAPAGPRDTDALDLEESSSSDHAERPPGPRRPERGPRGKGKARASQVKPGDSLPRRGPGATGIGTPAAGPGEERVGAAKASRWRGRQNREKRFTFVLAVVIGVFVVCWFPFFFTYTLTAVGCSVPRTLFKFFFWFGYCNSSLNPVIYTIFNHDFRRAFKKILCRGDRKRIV

[2] = molecular target: T2, Prostaglandin G/H synthase 1 (Homo sapiens, UniProt P23219); format: functional
Histamine H3 receptor = Histamine H3 receptor (Homo sapiens, UniProt Q9Y5N1)
Acetylcholinesterase = Acetylcholinesterase (Homo sapiens, UniProt P22303); format: functional
Thromboxane A2 receptor [3] = molecular target: T3, Thromboxane A2 receptor (Homo sapiens, UniProt P21731); format: functional, cell-based
T3 sequence (P21731 whole entry): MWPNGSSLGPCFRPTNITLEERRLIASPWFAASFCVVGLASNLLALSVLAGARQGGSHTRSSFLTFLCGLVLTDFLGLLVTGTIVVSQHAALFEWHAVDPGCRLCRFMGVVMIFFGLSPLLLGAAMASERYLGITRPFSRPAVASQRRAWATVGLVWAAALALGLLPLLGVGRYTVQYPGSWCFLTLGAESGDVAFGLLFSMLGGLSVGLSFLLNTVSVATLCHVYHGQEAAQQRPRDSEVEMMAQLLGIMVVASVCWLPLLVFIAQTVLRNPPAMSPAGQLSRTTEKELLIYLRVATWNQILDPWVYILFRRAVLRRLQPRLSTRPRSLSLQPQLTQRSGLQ

[4] = molecular target: cGMP-inhibited 3',5'-cyclic phosphodiesterase 3A (Homo sapiens, UniProt Q14432); format: functional
[5] = molecular target: T2, Prostaglandin G/H synthase 1; format: functional; remark: listed apart in the source
[6] = molecular target: Sodium-dependent noradrenaline transporter (Homo sapiens, UniProt P23975)
Thromboxane A2 receptor [7] = molecular target: T3, Thromboxane A2 receptor; format: functional, cell-based; remark: listed apart in the source
[8] = molecular target: Sodium-dependent serotonin transporter (Homo sapiens, UniProt P31645)
[9] = molecular target: 3',5'-cyclic-AMP phosphodiesterase 4A (Homo sapiens, UniProt P27815); format: functional
D(1A) dopamine receptor = D(1A) dopamine receptor (Homo sapiens, UniProt P21728)
[10] = molecular target: Sodium-dependent dopamine transporter (Homo sapiens, UniProt Q01959)
D(3) dopamine receptor = D(3) dopamine receptor (Homo sapiens, UniProt P35462)
Prothrombin = Prothrombin (Homo sapiens, UniProt P00734); format: functional
[11] = molecular target: 5-hydroxytryptamine receptor 2B (Homo sapiens, UniProt P41595); format: functional, cell-based
Mu-type opioid receptor = Mu-type opioid receptor (Homo sapiens, UniProt P35372)
[12] = molecular target: T4, Alpha-1A adrenergic receptor (Homo sapiens, UniProt P35348); format: functional, cell-based
T4 sequence (P35348 whole entry): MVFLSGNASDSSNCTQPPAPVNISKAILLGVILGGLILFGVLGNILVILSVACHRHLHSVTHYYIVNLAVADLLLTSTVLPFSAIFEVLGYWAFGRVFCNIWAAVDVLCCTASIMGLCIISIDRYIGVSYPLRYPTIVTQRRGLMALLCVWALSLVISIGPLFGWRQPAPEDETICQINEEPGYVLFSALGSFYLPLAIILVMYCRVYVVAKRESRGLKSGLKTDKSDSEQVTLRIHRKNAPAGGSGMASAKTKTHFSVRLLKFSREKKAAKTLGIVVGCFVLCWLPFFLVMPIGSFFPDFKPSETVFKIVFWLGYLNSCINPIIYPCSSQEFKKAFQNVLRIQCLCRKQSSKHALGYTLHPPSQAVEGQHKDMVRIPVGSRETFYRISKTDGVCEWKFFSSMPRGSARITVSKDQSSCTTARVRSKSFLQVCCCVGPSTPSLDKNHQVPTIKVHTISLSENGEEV

[13] = molecular target: T4, Alpha-1A adrenergic receptor; format: functional, cell-based; remark: listed apart in the source
[14] = molecular target: Vascular endothelial growth factor receptor 2 (Homo sapiens, UniProt P35968); format: functional
Adenosine receptor A3 = molecular target: T5, Adenosine receptor A3 (Homo sapiens, UniProt P0DMS8)
T5 sequence (P0DMS8 whole entry): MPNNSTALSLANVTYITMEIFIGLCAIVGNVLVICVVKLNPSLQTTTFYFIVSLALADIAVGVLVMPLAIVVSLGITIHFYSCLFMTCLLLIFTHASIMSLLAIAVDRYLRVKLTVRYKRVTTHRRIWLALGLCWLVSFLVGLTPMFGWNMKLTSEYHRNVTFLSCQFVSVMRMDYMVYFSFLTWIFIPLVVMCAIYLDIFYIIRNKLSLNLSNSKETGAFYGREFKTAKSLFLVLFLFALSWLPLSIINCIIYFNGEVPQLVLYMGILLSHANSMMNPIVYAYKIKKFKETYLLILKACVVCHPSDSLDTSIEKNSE
Also: assay procedure not described here.

Sequence of 3',5'-cyclic-AMP phosphodiesterase 4A (P27815 whole entry): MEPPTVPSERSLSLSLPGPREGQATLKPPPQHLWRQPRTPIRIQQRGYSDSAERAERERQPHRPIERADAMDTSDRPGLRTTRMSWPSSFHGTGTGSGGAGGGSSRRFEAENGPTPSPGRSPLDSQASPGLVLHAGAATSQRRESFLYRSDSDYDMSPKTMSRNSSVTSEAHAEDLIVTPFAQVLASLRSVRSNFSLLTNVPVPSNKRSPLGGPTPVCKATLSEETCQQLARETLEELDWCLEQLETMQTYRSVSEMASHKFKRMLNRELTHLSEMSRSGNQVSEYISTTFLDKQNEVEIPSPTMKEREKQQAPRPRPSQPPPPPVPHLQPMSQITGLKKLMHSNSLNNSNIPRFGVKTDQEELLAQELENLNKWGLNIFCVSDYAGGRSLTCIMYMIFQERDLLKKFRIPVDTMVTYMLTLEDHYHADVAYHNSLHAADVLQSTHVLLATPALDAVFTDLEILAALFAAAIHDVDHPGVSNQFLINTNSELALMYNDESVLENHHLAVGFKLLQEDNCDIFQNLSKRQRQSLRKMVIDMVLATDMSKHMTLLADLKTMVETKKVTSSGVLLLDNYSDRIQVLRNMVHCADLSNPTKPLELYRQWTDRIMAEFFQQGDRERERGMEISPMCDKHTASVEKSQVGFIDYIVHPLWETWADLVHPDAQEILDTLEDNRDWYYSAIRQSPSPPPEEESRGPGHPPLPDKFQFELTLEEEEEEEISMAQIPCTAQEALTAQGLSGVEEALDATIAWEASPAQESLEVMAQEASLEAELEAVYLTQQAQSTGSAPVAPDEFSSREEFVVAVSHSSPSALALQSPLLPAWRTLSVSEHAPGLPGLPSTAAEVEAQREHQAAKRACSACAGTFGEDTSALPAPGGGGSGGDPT
Sequence of Sodium-dependent noradrenaline transporter (P23975 whole entry): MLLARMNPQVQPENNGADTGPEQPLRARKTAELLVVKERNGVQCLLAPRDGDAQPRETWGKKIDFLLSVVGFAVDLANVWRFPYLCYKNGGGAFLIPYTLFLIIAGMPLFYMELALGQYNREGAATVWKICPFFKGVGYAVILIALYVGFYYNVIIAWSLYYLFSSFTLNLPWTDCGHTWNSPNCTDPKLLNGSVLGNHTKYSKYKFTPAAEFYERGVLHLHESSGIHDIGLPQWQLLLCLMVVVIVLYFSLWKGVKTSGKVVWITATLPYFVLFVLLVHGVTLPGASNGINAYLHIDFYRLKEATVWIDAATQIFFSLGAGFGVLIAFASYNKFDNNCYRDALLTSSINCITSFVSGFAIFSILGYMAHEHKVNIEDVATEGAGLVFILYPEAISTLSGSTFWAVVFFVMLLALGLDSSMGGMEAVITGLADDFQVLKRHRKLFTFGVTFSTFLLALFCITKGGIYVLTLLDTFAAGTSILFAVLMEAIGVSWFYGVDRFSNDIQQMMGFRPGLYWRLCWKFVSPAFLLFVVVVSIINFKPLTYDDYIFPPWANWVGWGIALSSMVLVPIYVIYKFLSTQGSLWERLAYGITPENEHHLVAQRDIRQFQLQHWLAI
T2 sequence (P23219 whole entry): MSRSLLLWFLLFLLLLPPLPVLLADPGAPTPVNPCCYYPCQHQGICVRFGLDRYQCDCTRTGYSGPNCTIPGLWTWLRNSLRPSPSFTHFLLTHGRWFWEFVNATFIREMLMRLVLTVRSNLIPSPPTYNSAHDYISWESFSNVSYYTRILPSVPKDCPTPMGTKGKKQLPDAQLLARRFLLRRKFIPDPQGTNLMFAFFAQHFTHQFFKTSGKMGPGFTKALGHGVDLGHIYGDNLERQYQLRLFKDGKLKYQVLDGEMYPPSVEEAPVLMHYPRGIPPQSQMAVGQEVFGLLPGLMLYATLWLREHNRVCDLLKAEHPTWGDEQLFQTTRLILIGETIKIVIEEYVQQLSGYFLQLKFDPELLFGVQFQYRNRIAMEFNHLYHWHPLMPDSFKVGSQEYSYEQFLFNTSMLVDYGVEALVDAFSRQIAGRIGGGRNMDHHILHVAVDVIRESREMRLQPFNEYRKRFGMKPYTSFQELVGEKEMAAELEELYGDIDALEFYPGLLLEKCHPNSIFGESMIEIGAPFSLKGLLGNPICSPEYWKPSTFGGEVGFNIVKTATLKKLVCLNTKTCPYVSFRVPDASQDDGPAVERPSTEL
Sequence of Sodium-dependent serotonin transporter (P31645 whole entry): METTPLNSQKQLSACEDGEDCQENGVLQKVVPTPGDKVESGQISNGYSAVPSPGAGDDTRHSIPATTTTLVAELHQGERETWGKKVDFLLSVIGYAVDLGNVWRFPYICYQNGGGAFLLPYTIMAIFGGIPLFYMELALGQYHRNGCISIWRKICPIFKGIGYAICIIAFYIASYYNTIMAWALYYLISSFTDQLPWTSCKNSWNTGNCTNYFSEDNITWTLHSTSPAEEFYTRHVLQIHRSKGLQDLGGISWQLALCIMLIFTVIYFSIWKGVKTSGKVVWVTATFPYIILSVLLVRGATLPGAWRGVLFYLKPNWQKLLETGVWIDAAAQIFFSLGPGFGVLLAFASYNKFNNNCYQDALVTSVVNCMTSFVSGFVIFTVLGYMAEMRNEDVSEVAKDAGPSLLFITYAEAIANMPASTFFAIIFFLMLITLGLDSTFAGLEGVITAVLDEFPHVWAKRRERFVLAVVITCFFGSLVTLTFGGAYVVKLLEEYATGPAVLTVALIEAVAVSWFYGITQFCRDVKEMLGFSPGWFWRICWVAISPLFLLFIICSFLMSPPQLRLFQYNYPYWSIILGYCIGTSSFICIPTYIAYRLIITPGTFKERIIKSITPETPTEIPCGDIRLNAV
Sequence of Vascular endothelial growth factor receptor 2 (P35968 whole entry): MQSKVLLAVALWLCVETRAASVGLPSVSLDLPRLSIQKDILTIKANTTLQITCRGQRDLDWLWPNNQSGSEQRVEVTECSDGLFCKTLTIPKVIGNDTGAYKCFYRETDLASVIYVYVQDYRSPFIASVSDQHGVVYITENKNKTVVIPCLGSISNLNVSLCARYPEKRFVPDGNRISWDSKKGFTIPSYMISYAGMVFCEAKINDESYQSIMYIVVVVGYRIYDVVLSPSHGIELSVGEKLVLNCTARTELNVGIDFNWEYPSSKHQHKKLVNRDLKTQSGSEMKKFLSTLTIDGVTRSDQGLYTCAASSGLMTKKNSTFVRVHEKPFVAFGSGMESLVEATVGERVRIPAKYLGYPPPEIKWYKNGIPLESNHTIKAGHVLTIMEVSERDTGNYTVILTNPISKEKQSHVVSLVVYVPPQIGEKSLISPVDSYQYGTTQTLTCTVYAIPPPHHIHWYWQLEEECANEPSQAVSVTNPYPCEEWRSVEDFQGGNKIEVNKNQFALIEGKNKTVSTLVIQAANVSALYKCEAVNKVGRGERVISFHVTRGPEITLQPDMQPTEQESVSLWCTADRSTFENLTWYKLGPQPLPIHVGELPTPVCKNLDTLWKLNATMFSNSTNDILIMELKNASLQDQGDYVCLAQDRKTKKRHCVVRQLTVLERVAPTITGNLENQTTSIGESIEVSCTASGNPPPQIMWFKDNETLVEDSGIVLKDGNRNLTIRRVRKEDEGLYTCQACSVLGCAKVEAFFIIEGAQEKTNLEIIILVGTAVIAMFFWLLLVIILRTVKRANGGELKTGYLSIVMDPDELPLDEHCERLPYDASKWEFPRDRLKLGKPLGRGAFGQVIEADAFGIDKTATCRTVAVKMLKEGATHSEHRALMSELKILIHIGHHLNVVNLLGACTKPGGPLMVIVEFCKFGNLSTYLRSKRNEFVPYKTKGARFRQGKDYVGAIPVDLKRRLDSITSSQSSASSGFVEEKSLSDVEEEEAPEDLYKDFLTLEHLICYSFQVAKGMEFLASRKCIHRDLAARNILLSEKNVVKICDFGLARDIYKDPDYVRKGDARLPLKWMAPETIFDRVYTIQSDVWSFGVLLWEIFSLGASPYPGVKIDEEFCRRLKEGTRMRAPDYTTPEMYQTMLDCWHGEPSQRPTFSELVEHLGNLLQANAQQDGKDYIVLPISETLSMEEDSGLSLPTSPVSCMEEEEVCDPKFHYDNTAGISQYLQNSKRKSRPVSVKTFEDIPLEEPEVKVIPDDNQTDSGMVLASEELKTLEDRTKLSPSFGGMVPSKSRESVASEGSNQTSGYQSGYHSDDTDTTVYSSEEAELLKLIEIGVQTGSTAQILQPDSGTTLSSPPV
Sequence of Histamine H3 receptor (Q9Y5N1 whole entry): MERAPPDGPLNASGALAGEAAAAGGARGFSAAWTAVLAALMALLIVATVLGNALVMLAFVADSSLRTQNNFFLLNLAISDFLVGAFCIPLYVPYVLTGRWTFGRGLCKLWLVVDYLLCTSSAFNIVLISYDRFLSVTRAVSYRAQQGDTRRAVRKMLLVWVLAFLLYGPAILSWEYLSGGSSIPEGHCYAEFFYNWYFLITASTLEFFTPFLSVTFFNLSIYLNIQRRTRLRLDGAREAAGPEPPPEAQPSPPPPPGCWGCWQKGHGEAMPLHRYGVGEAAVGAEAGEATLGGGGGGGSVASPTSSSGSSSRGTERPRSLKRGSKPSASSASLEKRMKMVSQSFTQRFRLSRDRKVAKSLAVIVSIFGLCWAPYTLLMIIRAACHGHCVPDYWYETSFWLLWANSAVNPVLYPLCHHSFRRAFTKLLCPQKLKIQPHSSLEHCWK
Sequence of Mu-type opioid receptor (P35372 whole entry): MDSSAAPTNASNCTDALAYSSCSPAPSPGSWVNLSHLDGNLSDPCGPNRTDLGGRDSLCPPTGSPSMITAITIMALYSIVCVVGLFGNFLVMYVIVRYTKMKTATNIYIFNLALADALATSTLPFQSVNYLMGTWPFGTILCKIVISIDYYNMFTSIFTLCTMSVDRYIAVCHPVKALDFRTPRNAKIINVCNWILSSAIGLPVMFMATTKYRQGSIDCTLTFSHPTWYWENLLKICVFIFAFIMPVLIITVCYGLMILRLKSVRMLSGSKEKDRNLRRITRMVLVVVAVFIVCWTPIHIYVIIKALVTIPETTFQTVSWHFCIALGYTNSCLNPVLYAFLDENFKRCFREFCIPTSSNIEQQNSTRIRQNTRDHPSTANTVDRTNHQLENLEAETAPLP

Compound | AC50 [1] [µM] | AC50 [2] [µM] | AC50 (Histamine H3 receptor) [µM] | AC50 (Acetylcholinesterase) [µM] | AC50 (Thromboxane A2 receptor [3]) [µM] | AC50 [4] [µM] | AC50 [5] [µM] | AC50 [6] [µM] | AC50 (Thromboxane A2 receptor [7]) [µM] | AC50 [8] [µM] | AC50 [9] [µM] | AC50 (D(1A) dopamine receptor) [µM] | AC50 [10] [µM] | AC50 (D(3) dopamine receptor) [µM] | AC50 (Prothrombin) [µM] | AC50 [11] [µM] | AC50 (Mu-type opioid receptor) [µM] | AC50 [12] [µM] | AC50 [13] [µM] | AC50 [14] [µM] | further results
C[C@@H](O)[C@H]1C(=O)N2C(C(=O)O)=C(S[C@@H]3CN[C@H](C(=O)Nc4cccc(C(=O)O)c4)C3)[C@H](C)[C@H]12 | > 30 | 19.9 | > 30 | > 30 | > 30 | > 30 | 10.2 | > 30 | > 30 | > 30 | 1.62 | > 30 | > 30 | > 30 | > 30 | > 30 | > 30 | – | – | – | –
CC(=O)OC1CN2CCC1CC2 (stereo unspecified) [ACECLIDINE] | > 30 | > 30 | > 30 | > 30 | > 30 | > 30 | > 30 | > 30 | > 30 | > 30 | > 30 | > 30 | > 30 | > 30 | > 30 | > 30 | > 30 | – | – | – | –
CC(=O)Nc1ccc(/C=N/NC(N)=S)cc1 [AMITHIOZONE] | > 30 | > 30 | > 30 | > 30 | > 30 | > 30 | > 30 | > 30 | > 30 | > 30 | > 30 | > 30 | > 30 | > 30 | > 30 | > 30 | > 30 | – | – | – | –
O=C(OOC(=O)c1ccccc1)c1ccccc1 [BENZOYL PEROXIDE] | > 30 | > 30 | > 30 | > 30 | > 30 | > 30 | > 30 | > 30 | > 30 | > 30 | > 30 | > 30 | > 30 | > 30 | 9.02 | > 30 | > 30 | > 30 | > 30 | – | –
CSCC[C@H](N)C(=O)O [METHIONINE] | > 30 | > 30 | > 30 | > 30 | > 30 | > 30 | > 30 | > 30 | > 30 | > 30 | > 30 | > 30 | > 30 | > 30 | > 30 | > 30 | > 30 | – | – | – | –
OC(CN1CCCCC1)c1cc(-c2ccccc2)on1 (stereo unspecified) [PERISOXAL] | > 30 | > 30 | 15.8 | > 30 | > 30 | > 30 | > 30 | 21.9 | > 30 | > 30 | > 30 | 3.82 | > 30 | 15.2 | > 30 | > 30 | 27.4 | – | – | – | –
CO[C@H]1/C=C/O[C@@]2(C)Oc3c(C)c(O)c4c(c3C2=O)C2=NC3(CCN(CC(C)C)CC3)NC2=C(NC(=O)/C(C)=C\C=C\[C@H](C)[C@H](O)[C@@H](C)[C@@H](O)[C@@H](C)[C@H](OC(C)=O)[C@@H]1C)C4=O [RIFABUTIN] | > 30 | 17.4 | > 30 | > 30 | > 30 | > 30 | 17.7 | > 30 | > 30 | – | > 30 | > 30 | > 30 | > 30 | > 30 | > 30 | > 30 | > 30 | > 30 | > 30 | AC50 (Adenosine receptor A3): > 30 µM
C[C@@H]1CN(c2c(F)c(N)c3c(=O)c(C(=O)O)cn(C4CC4)c3c2F)C[C@H](C)N1 [SPARFLOXACIN] | > 30 | > 30 | > 30 | > 30 | > 30 | > 30 | > 30 | > 30 | > 30 | – | > 30 | > 30 | > 30 | > 30 | > 30 | > 30 | > 30 | > 30 | > 30 | > 30 | AC50 (Adenosine receptor A3): > 30 µM
COc1ncnc(NS(=O)(=O)c2ccc(N)cc2)c1OC [SULFADOXINE] | > 30 | > 30 | > 30 | > 30 | > 30 | > 30 | > 30 | > 30 | > 30 | – | > 30 | > 30 | > 30 | > 30 | > 30 | > 30 | > 30 | > 30 | > 30 | > 30 | AC50 (Adenosine receptor A3): > 30 µM
Cc1ccc(O)c([C@H](CCN(C(C)C)C(C)C)c2ccccc2)c1 [TOLTERODINE] | > 30 | – | > 30 | > 30 | – | – | – | > 30 | – | 20.3 | – | > 30 | > 30 | > 30 | – | > 30 | > 30 | 24.7 | > 30 | – | –
NS(=O)(=O)c1cc2c(cc1Cl)NC(C(Cl)Cl)NS2(=O)=O (stereo unspecified) [TRICHLORMETHIAZIDE] | > 30 | > 30 | > 30 | > 30 | > 30 | > 30 | > 30 | > 30 | > 30 | – | > 30 | > 30 | > 30 | > 30 | > 30 | > 30 | > 30 | > 30 | > 30 | > 30 | AC50 (Adenosine receptor A3): > 30 µM
